According to US6875578B2, “System for cell-based screening” (priority 1997, dated 2005):

Assays:
SNB-19 cells = experiment: High-content screen of paclitaxel-induced apoptosis, SNB-19 cells; format: cell-based; conditions: 26 h
Experimental: The cells chosen for this study were mouse connective tissue fibroblasts (L-929; ATCC CCL-1) and a highly invasive glioblastoma cell line (SNB-19; ATCC CRL-2219) (Welch et al., In Vitro Cell. Dev. Bid. 31:610, 1995). The day before treatment with an apoptosis inducing drug, 3500 cells were placed into each well of a 96-well plate and incubated overnight at 37° C. in a humidified 5% CO2 atmosphere. The following day, the culture medium was removed from each well and replaced with fresh medium containing various concentrations of paclitaxel (0-50 μM) from a 20 mM stock made in DMSO. The maximal concentration of DMSO used in these experiments was 0.25%. The cells were then incubated for 26 h as above. At the end of the paclitaxel treatment period, each well received fresh medium containing 750 nM MITOTRACKER™ Red (Molecular Probes; Eugene, Oreg.) and 3 μg/ml Hoechst 33342 DNA-binding dye (Molecular Probes) and was incubated as above for 20 mm. Each well on the plate was then washed with HBSS and fixed with 3.7% formaldehyde in HBSS for 15 mm at room temperature. […] The fluorescence signals from plates stored this way were stable for at least two weeks after preparation. As in the nuclear translocation assay, fluorescence reagents can be designed to convert this assay into a live cell high-content screen.
The fluorescence intensity of intracellular MITOTRACKER™ Red, Hoechst 33342, and BODIPY™ FL phallacidin was measured with the cell screening system as described supra. […]
A total of 50-250 cells were measured per image field. For each field of cells, the following calculations were performed: (1) The average nuclear area (μm^2) was calculated by dividing the total nuclear area in a field by the number of nuclei detected. (2) The average nuclear perimeter (μm) was calculated by dividing the sum of the perimeters of all nuclei in a field by the number of nuclei detected in that field. […] (3) The average nuclear brightness was calculated by dividing the integrated intensity of the entire field of nuclei by the number of nuclei in that field. […]

[1] = test system: microtubule arrays (tubulin-GFP chimera); experiment: Microtubule disruption assay, LLCPK cells with tubulin-GFP biosensor; format: cell-based, pig; conditions: 10-500 nM, 12 hour time point
Experimental: For microtubule disruption assays, LLCPK cells stably transfected with a tubulin-GFP biosensor plasmid were plated on 96 well cell culture dishes at 50-60% confluence and cultured overnight at 37° C., 5% CO2. […] The cells were then observed with the cell screening system described above, at a 12 hour time point.

caspase-3 = experiment: Caspase-3 biosensor apoptosis assay, MCF-7 cells; format: cell-based; conditions: MCF-7 cells transfected with the caspase 3 biosensor
Experimental: For DNA transfection, BHK cells and MCF-7 cells were cultured to 50-70% confluence in 6 well plates containing 3 ml of minimal Eagle's medium (MEM) with 10% fetal calf serum, 1 mM L-glutamine, 50 μg/ml streptomycin, 50 μg/ml penicillin, 0.1 mM non-essential amino acids, 1 mM sodium pyruvate and 10 μg/ml of bovine insulin (for MCF-7 cell only) at 37° C. in a 5% CO2 incubator for about 36 hours. The cells were washed with serum free MEM media and incubated for 5 hours with 1 ml of transfection mixture containing 1 μg of the appropriate plasmid and 4 μg of lipofectimine (BRL) in the serum free MEM media. Subsequently, the transfection medium was removed and replaced with 3 ml of normal culture media. The transfected cells were maintained in growth medium for at least 16 hours before performing selection of the stable cells based on standard molecular biology methods (Ausubel. et al 1995).
For apoptosis assays, the cells (BHK, MCF-7) stably transfected with the appropriate protease biosensor expression vector were plated on tissue culture treated 96-well plates at 50-60% confluence and cultured overnight at 37° C., 5% CO2. Varying concentrations of cis-platin, staurosporine, or paclitaxel in normal culture media were freshly prepared from stock and added to cell culture dishes to replace the old culture media. The cells were then observed with the cell screening system of the present invention at the indicated time points either as live cell experiments or as fixed end-point experiments.
This biosensor is restricted to the cytoplasm by the reactant target sequence. The reactant target sequence is the annexin II cytoskeletal binding domain ([…]) (SEQ ID NO:124) (FIG. 29C) (Eberhard et al. 1997. Mol. Biol. Cell 8:293a). The enzyme recognition site corresponds to two copies of the amino acid sequence DEVD (SEQ ID NO:60) (FIG. 29B), which serves as the recognition site of caspase-3. […]
The biosensor response is measured by quantitating the effective cytoplasm-to-nuclear translocation of the signal (see above). […]

CC(=O)O[C@H]1C(=O)[C@@]2(C)[C@H]([C@H](OC(=O)c3ccccc3)[C@]3(O)C[C@H](OC(=O)[C@H](O)[C@@H](NC(=O)c4ccccc4)c4ccccc4)C(C)=C1C3(C)C)[C@]1(OC(C)=O)CO[C@@H]1C[C@@H]2O [paclitaxel]
mitochondrial potential (SNB-19 cells; 10 nM paclitaxel): minimal at the same concentration of paclitaxel | concentration at which area, brightness, and fragmentation of the nucleus and actin polymerization values reached a maximum value (SNB-19 cells): 10 nM | all the parameters measured at increasing concentrations (SNB-19 cells; >10 nM paclitaxel): approached control levels | Response of microtubule arrays [1]: Stabilization | caspase activation reported by the biosensor (caspase-3): stimulated
